Results: patent US9779901B2, “High temperature material compositions for high temperature thermal cutoff devices” (Therm-O-Disc, Incorporated, priority 2008, dated 2017)
Read-outs that look alike come from different tables or passages of the source.

Assays:
[1] = estimated melting point temperature ranges of candidate organic compounds (Table 2); some compounds have several values, partly in parentheses, because analytic techniques differ; cited from earlier work
[2] = 20° C.; cited from earlier work

| SMILES | Melting Point [1] | Melting Point | Vapor Pressure [2] |
| --- | --- | --- | --- |
| NC(=O)c1c2c(nc3ccccc13)CCCC2 [Example 191] | 265-267° ° C. | 265 to 267 °C | – |
| Cn1c(=O)c2ccn(C)c2n(C)c1=O [Example 192] | 265-266° ° C. | 265 to 266 °C | – |
| N#Cc1ccc(Nc2ccc(C#N)cc2)cc1 [Example 194] | 265-266° ° C. | 265 to 266 °C | – |
| Nc1cc(N)n(N)c(=S)n1 [Example 197] | 265° ° C. | 265 °C | – |
| Nc1cccc2c1C(=O)c1c(N)cccc1C2=O [Example 198] | 265° ° C. | 265 °C | – |
| Nc1ccc2cc([N+](=O)[O-])ccc2n1 [Example 201] | 265° ° C. | 265 °C | – |
| Cc1ccc2cnc(O)cc2c1 [Example 204] | 265° ° C. | 265 °C | – |
| Cc1nc2c(C)c(C)c(C)c(C)c2[nH]1 [Example 209] | 265° ° C. | 265 °C | – |
| OCC(CO)(CO)CO [pentaerythritol, 2,2-Bis(hydroxymethyl)-1,3-propanediol] | – | – | <1 mmHG (20° C.) |
